Where two headings read alike, the source gives them in different places.
How the values were obtained:
[1] = test system: EV-A71 strain Jiangsu52 (JS52); experiment: CPE inhibition assay for anti-EV-A71 in Vero cells, Jiangsu52 strain; type: cell-based, Enterovirus 71 (EV-A71); conditions: for Jiangsu52 SI: CC50/EC50; for EC50: Enterovirus A, EVA71, Vero cells, 100TCID50, 48 h
Method: (§1) An in-vitro antiviral assay was established using the Africa monkey kidney cell line Vero which was infected with different EV-A71 clinical isolates (BrCr, H, Shenzhen98 and Jiangsu52). A total of 24 synthetic compounds were initially screened in such an assay to determine their inhibitory effect on virus replication at 3-fold diluted concentrations serial (400~0.18 μM). The 50% effective concentration (EC50) of each compound was calculated according to its inhibitory rate values with the Reed–Muench method. The 50% cytotoxic concentration (CC50) was defined as the concentration that inhibited 50% cellular growth in comparison with the controls. The selectivity index (SI) was calculated as CC50/EC50. […] Generally, the EV-A71 H strain was less sensitive to most of the active compounds as compared to the other virus strains.
(§2) EV-A71 strain ShenZhen98 (SZ98) was isolated from the throat swab sample of an HFMD case which occurred in 1998 in China. This was kindly provided by Dr. Qi Jin, Institute of Pathogen Biology, Chinese Academy of Medical Science and Peking Union Medical School, Beijing, China. EV-A71 strains BrCr (VR-1775) and H (VR-1432) were purchased from the ATCC. The EV-A71 strain JS52 was a kind gift from Dr. Xiangzhong Ye, Beijing Wantai Biological Pharmacy Enterprise Co., Ltd. EV-A71 were all passaged in Vero cells.
(§3) The anti-EV-A71 activity of compounds was determined by the CPE inhibition method. Briefly, cells (3 × 10^4 cells/well) were plated into 96-well culture plates for incubation for 24 h. The medium was then removed and cells were infected with EV-A71 with 100TCID50 (50% tissue culture infective doses) in serum-free medium for 1 h at 37 °C. Then, the unbound viruses were removed and various concentrations of compounds were supplemented and incubated for another 48 h. The EC50 was determined by the Reed–Muench method. The selectivity index was calculated as the ratio of CC50/EC50 [15].

[2] = test system: EV-A71 strain ShenZhen98 (SZ98); experiment: CPE inhibition assay for anti-EV-A71 in Vero cells, Shenzhen98 strain; type: cell-based, Enterovirus 71 (EV-A71); conditions: for Shenzhen98 SI: CC50/EC50; for EC50: Enterovirus A, EVA71, Vero cells, 100TCID50, 48 h
Method: as §1, §2, §3

[3] = Cytotoxicity assay (CPE) on Vero cells; type: cell-based; conditions: African green monkey
Method: as §1
African green monkey kidney (Vero) cells were purchased from the American Type Culture Collection (ATCC) and were cultured in minimum essential medium (MEM) supplemented with 10% fetal bovine serum (FBS) (GIBCO) and antibiotics (100 U/mL penicillin and […] streptomycin) at 37 °C in a 5% CO2 incubator.
The cytotoxic effects of compounds on Vero cells were detected by the cytopathic effect (CPE) assay. Briefly, cells (3 × 10^4 cells/well) were seeded into 96-well culture plates and incubated overnight. Then, the medium was removed and different concentrations of compounds were applied in triplicate. After 3 days of incubation, the CC50 was defined as the concentration that inhibited 50% cellular growth in comparison with the untreated controls, as calculated by the Reed–Muench method.

[4] = test system: four EV-A71 strains (BrCr, H, Shenzhen98, Jiangsu52); experiment: CPE inhibition assay, summary over four EV-A71 strains; type: cell-based, Enterovirus 71 (EV-A71); conditions: for EC50: Enterovirus A, EVA71, Vero, read-out: EC50 towards four EV-A71 strains
Method: as §1, §3

EV-A71 strain BrCr = experiment: CPE inhibition assay for anti-EV-A71 in Vero cells, BrCr strain; type: cell-based, Enterovirus 71 (EV-A71); conditions: for BrCr SI: CC50/EC50; for EC50: Enterovirus A, EVA71, Vero cells, 100TCID50, 48 h
Method: as §1, §2, §3

EV-A71 strain H = experiment: CPE inhibition assay for anti-EV-A71 in Vero cells, H strain; type: cell-based, Enterovirus 71 (EV-A71); conditions: for H SI: CC50/EC50; for EC50: Enterovirus A, EVA71, Vero cells, 100TCID50, 48 h
Method: as §1, §2, §3

EV71 = test system: EV71; parameters: method as in PMID 23519203; conditions: cited from earlier work
[5] = Vero cells, 3 days of incubation, Reed–Muench, read-out: CC50

Cc1ccc(N2Cc3cc(N)ccc3C2=O)cc1 [Compound 6, 5-amino-2-(p-tolyl)isoindolin-1-one]
Jiangsu52 SI [1]: 91 | EC50 [1]: 1.89 ± 0.32 µM | Shenzhen98 SI [2]: 86 | EC50 [2]: 2 ± 0.25 µM | CC50 at 3 days [3, 5]: 173 ± 34 µM | EC50 [4]: < 10 µM | BrCr SI (EV-A71 strain BrCr): 91 | EC50 (EV-A71 strain BrCr): 1.89 ± 0.32 µM | H SI (EV-A71 strain H): 82 | EC50 (EV-A71 strain H): 2.11 ± 0.23 µM

O=C1c2ccccc2CN1c1ccc(Br)cc1 [Compound A4, 2-(4-bromophenyl)isoindolin-1-one]
Jiangsu52 SI [1]: 131 | EC50 [1]: 1.32 ± 0.22 µM | Shenzhen98 SI [2]: 98 | EC50 [2]: 1.76 ± 0.15 µM | CC50 at 3 days [3, 5]: 173 ± 34 µM | SI towards four EV-A71 strains ([4]; CC50/EC50, range over four strains): 98–199 | EC50 [4]: 1.23 to 1.76 µM | EC50 fold higher than pirodavir ([4]; relative to reference compound pirodavir): 2–4 fold | BrCr SI (EV-A71 strain BrCr): 140 | EC50 (EV-A71 strain BrCr): 1.23 ± 0.28 µM | H SI (EV-A71 strain H): 98 | EC50 (EV-A71 strain H): 1.76 ± 0.19 µM

COc1ccc(N2Cc3ccccc3C2=O)cc1 [Compound A7, 2-(4-methoxyphenyl)isoindolin-1-one]
Jiangsu52 SI [1]: 40 | EC50 [1]: 7.92 ± 0.86 µM | Shenzhen98 SI [2]: 44 | EC50 [2]: 7.27 ± 0.86 µM | CC50 at 3 days [3, 5]: 318 ± 54.5 µM | EC50 [4]: < 10 µM | BrCr SI (EV-A71 strain BrCr): 44 | EC50 (EV-A71 strain BrCr): 7.27 ± 0.86 µM | H SI (EV-A71 strain H): 34 | EC50 (EV-A71 strain H): 9.35 ± 1.44 µM

CCCNc1ccc2c(c1)C(=O)N(c1ccc(OC)cc1)C2 [Compound B1, 2-(4-methoxyphenyl)-6-(propylamino)isoindolin-1-one]
Jiangsu52 SI [1]: 43 | EC50 [1]: 1.59 ± 0.43 µM | Shenzhen98 SI [2]: 43 | EC50 [2]: 1.59 ± 0.35 µM | CC50 at 3 days [3, 5]: 68.4 ± 5.72 µM | EC50 [4]: < 10 µM | BrCr SI (EV-A71 strain BrCr): 43 | EC50 (EV-A71 strain BrCr): 1.59 ± 0.35 µM | H SI (EV-A71 strain H): 13 | EC50 (EV-A71 strain H): 5.41 ± 0.63 µM

CCC(=O)Nc1ccc2c(c1)C(=O)N(c1ccc(OC)cc1)C2 [Compound C1, N-(2-(4-methoxyphenyl)-3-oxoisoindolin-5-yl)propionamide]
Jiangsu52 SI [1]: 25 | EC50 [1]: 5.91 ± 0.65 µM | Shenzhen98 SI [2]: 26 | EC50 [2]: 5.85 ± 0.6 µM | CC50 at 3 days [3, 5]: 152 ± 27 µM | BrCr SI (EV-A71 strain BrCr): 26 | EC50 (EV-A71 strain BrCr): 5.85 ± 0.6 µM | H SI (EV-A71 strain H): / (/ represents selectivity index (SI) value of less than 10) | EC50 (EV-A71 strain H): > 44.4 µM

CCC(=O)Nc1ccc2c(c1)CN(c1ccc(OC)cc1)C2=O [Compound C2, N-(2-(4-methoxyphenyl)-1-oxoisoindolin-5-yl)propionamide]
Jiangsu52 SI [1]: / (/ represents selectivity index (SI) value of less than 10) | Shenzhen98 SI [2]: / (/ represents selectivity index (SI) value of less than 10) | CC50 at 3 days [3, 5]: 231 µM | BrCr SI (EV-A71 strain BrCr): / (/ represents selectivity index (SI) value of less than 10) | H SI (EV-A71 strain H): / (/ represents selectivity index (SI) value of less than 10)

CCC(=O)Nc1ccc2c(c1)CN(c1ccc(C)cc1)C2=O [Compound C3, N-(1-oxo-2-(p-tolyl)isoindolin-5-yl)propionamide]
Jiangsu52 SI [1]: / (/ represents selectivity index (SI) value of less than 10) | Shenzhen98 SI [2]: / (/ represents selectivity index (SI) value of less than 10) | CC50 at 3 days [3, 5]: 113 ± 17.2 µM | BrCr SI (EV-A71 strain BrCr): / (/ represents selectivity index (SI) value of less than 10) | H SI (EV-A71 strain H): / (/ represents selectivity index (SI) value of less than 10)

O=C1c2cc(-c3ccccc3)ccc2CN1c1ccc(Cl)cc1 [Compound D1]
Jiangsu52 SI [1]: 2 | EC50 [1]: 56.5 ± 14.5 µM | Shenzhen98 SI [2]: / (/ represents selectivity index (SI) value of less than 10) | CC50 at 3 days [3, 5]: 115 µM | BrCr SI (EV-A71 strain BrCr): / (/ represents selectivity index (SI) value of less than 10) | H SI (EV-A71 strain H): / (/ represents selectivity index (SI) value of less than 10) | EC50 (EV-A71 strain H): 66.7 µM

O=C1c2cc(Nc3ccccc3)ccc2CN1c1ccc(Cl)cc1 [Compound D2]
Jiangsu52 SI [1]: / (/ represents selectivity index (SI) value of less than 10) | EC50 [1]: 15.1 ± 3.23 µM | Shenzhen98 SI [2]: / (/ represents selectivity index (SI) value of less than 10) | EC50 [2]: 19.8 ± 3.4 µM | CC50 at 3 days [3, 5]: 115 µM | fold loss in activity ([4]; against four in vitro models, relative to A3): 10 fold | BrCr SI (EV-A71 strain BrCr): / (/ represents selectivity index (SI) value of less than 10) | EC50 (EV-A71 strain BrCr): 19.6 ± 3.77 µM | H SI (EV-A71 strain H): / (/ represents selectivity index (SI) value of less than 10) | EC50 (EV-A71 strain H): 19.6 ± 3.77 µM

CN1CCN(c2ccc3c(c2)C(=O)N(c2ccc(Cl)cc2)C3)CC1 [Compound D3, 6-(4-methylpiperazin)-2-(4-chlorophenyl)-isoindolin-1-one]
Jiangsu52 SI [1]: 32 | EC50 [1]: 1.29 ± 0.33 µM | Shenzhen98 SI [2]: 11 | EC50 [2]: 3.73 ± 0.78 µM | CC50 at 3 days [3]: 42.4 ± 5.47 µM | EC50 [4]: < 10 µM | BrCr SI (EV-A71 strain BrCr): 16 | EC50 (EV-A71 strain BrCr): 2.71 ± 0.35 µM | H SI (EV-A71 strain H): 20 | EC50 (EV-A71 strain H): 2.09 ± 0.54 µM

COc1ccc(C(=O)Nc2ccc(Br)cc2)cc1N [N-pheylbenzoamide hit, 3-amino-N-(4-bromophenyl)-4-methoxybenzamide]
SI (EV71; Figure 1): 51-110 | IC50 (EV71; Figure 1, multiple virus strains, read-out: Anti-EV71 IC50): 5.7 to 12 µM | anti-EV-A71 activity (EV71; against multiple virus strains): moderate anti-EV-A71 activity

CCOC(=O)c1ccc(OCCC2CCN(c3ccc(C)nn3)CC2)cc1 [pirodavir, reference compound]
Jiangsu52 SI [1]: 54 | EC50 [1]: 0.62 ± 0.1 µM | Shenzhen98 SI [2]: 67 | EC50 [2]: 0.5 ± 0.06 µM | CC50 at 3 days [3, 5]: 33.3 µM | EC50 [4]: 0.38 to 0.76 µM | BrCr SI (EV-A71 strain BrCr): 88 | EC50 (EV-A71 strain BrCr): 0.38 ± 0.04 µM | H SI (EV-A71 strain H): 44 | EC50 (EV-A71 strain H): 0.76 ± 0.09 µM
